From the supplement of paper PMC10307832

Experiments:
Test in all cases: relative viability (nuclei count vs DMSO), 5 days (fraction); higher = more cells survive
NCI-H1563 = system: NCI-H1563
Outline: (§1)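 A single step with final 0.05% Triton X-100, 1% formaldehyde and 1 ug/ml Hoechst fixed the cells and stained nuclei 5 days after treatment. Lung cancer cell lines in 1536-well plates had been treated by pin tool the day after seeding with one drug alone or a fixed anchor-drug dose plus five library-drug doses (not always all listed) in √10 steps, and nuclei were counted on 4× images. Relative viability is the ratio of nuclei in treated wells to nuclei in vehicle wells, taken as the median of duplicate plates.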

NCI-H1755 = system: NCI-H1755
Outline: as §1

NCI-H1792 = system: NCI-H1792
Outline: as §1

NCI-H727 = system: NCI-H727
Outline: as §1

LCLC-103H = system: LCLC-103H
Outline: as §1

NCI-H460 = system: NCI-H460
Outline: as §1

NCI-H2347 = system: NCI-H2347
Outline: as §1

LXF-289 = system: LXF-289
Outline: as §1

NCI-H1355 = system: NCI-H1355
Outline: as §1

NCI-H3122 = system: NCI-H3122
Outline: as §1

NCI-H1915 = system: NCI-H1915
Outline: as §1

NCI-H522 = system: NCI-H522
Outline: as §1

NCI-H1651 = system: NCI-H1651
Outline: as §1

NCI-H520 = system: NCI-H520
Outline: as §1

NCI-H661 = system: NCI-H661
Outline: as §1

NCI-H322M = system: NCI-H322M
Outline: as §1

RERF-LC-KJ = system: RERF-LC-KJ
Outline: as §1

SW 900 = system: SW 900
Outline: as §1

PC-14 = system: PC-14
Outline: as §1

SK-MES-1 = system: SK-MES-1
Outline: as §1

NCI-H441 = system: NCI-H441
Outline: as §1

NCI-H596 = system: NCI-H596
Outline: as §1

`O=c1cc(-c2cccc3c2Sc2ccccc2S3)oc(N2CCOCC2)c1` + Cc1nc(Nc2ncc(C(=O)Nc3c(C)cccc3Cl)s2)cc(N2CCN(CCO)CC2)n1 [Dasatinib] (partner 0.075 µM) gave a relative viability (NCI-H1563; first compound 0.08 µM) of 0.473, a relative viability (NCI-H1563; first compound 0.253 µM) of 0.454 and a relative viability (NCI-H1563; first compound 0.8 µM) of 0.437. It also gave a relative viability (NCI-H1563; first compound 2.53 µM) of 0.366, a relative viability (NCI-H1563; first compound 8 µM) of 0.467 and a relative viability (NCI-H1755; first compound 0.08 µM) of 0.434. The relative viability (NCI-H1755; first compound 0.253 µM) was 0.44, the relative viability (NCI-H1755; first compound 0.8 µM) was 0.416 and the relative viability (NCI-H1755; first compound 2.53 µM) was 0.324. It also gave a relative viability (NCI-H1755; first compound 8 µM) of 0.381, a relative viability (NCI-H1792; first compound 0.08 µM) of 0.791 and a relative viability (NCI-H1792; first compound 0.253 µM) of 1.01. It also gave a relative viability (NCI-H1792; first compound 0.8 µM) of 0.617, a relative viability (NCI-H1792; first compound 2.53 µM) of 0.728 and a relative viability (NCI-H1792; first compound 8 µM) of 1.04. For the same molecule, the relative viability (NCI-H727; first compound 0.08 µM) was 0.332, the relative viability (NCI-H727; first compound 0.253 µM) was 0.438 and the relative viability (NCI-H727; first compound 0.8 µM) was 0.449. For the same molecule, the relative viability (NCI-H727; first compound 2.53 µM) was 0.382, the relative viability (NCI-H727; first compound 8 µM) was 0.409 and the relative viability (LCLC-103H; first compound 0.08 µM) was 0.416. It also gave a relative viability (LCLC-103H; first compound 0.253 µM) of 0.503, a relative viability (LCLC-103H; first compound 0.8 µM) of 0.528 and a relative viability (LCLC-103H; first compound 2.53 µM) of 0.439. It also gave a relative viability (LCLC-103H; first compound 8 µM) of 0.551, a relative viability (NCI-H460; first compound 0.08 µM) of 0.454 and a relative viability (NCI-H460; first compound 0.253 µM) of 0.619. The relative viability (NCI-H460; first compound 0.8 µM) was 0.436, the relative viability (NCI-H460; first compound 2.53 µM) was 0.408 and the relative viability (NCI-H460; first compound 8 µM) was 0.55. It also gave a relative viability (NCI-H2347; first compound 0.08 µM) of 0.298, a relative viability (NCI-H2347; first compound 0.253 µM) of 0.286 and a relative viability (NCI-H2347; first compound 0.8 µM) of 0.296. The relative viability (NCI-H2347; first compound 2.53 µM) was 0.304, the relative viability (NCI-H2347; first compound 8 µM) was 0.298 and the relative viability (LXF-289; first compound 0.08 µM) was 0.219. It also gave a relative viability (LXF-289; first compound 0.253 µM) of 0.21, a relative viability (LXF-289; first compound 0.8 µM) of 0.226 and a relative viability (LXF-289; first compound 2.53 µM) of 0.239. It also gave a relative viability (LXF-289; first compound 8 µM) of 0.224, a relative viability (NCI-H1355; first compound 0.08 µM) of 0.754 and a relative viability (NCI-H1355; first compound 0.253 µM) of 0.619. It also gave a relative viability (NCI-H1355; first compound 0.8 µM) of 0.488, a relative viability (NCI-H1355; first compound 2.53 µM) of 0.615 and a relative viability (NCI-H1355; first compound 8 µM) of 0.694. The relative viability (NCI-H3122; first compound 0.08 µM) was 0.79, the relative viability (NCI-H3122; first compound 0.253 µM) was 0.787 and the relative viability (NCI-H3122; first compound 0.8 µM) was 0.784. It also gave a relative viability (NCI-H3122; first compound 2.53 µM) of 0.828, a relative viability (NCI-H3122; first compound 8 µM) of 0.929 and a relative viability (NCI-H1915; first compound 0.08 µM) of 0.296. The relative viability (NCI-H1915; first compound 0.253 µM) was 0.351, the relative viability (NCI-H1915; first compound 0.8 µM) was 0.309 and the relative viability (NCI-H1915; first compound 2.53 µM) was 0.306. For the same molecule, the relative viability (NCI-H1915; first compound 8 µM) was 0.337, the relative viability (NCI-H522; first compound 0.08 µM) was 0.895 and the relative viability (NCI-H522; first compound 0.253 µM) was 0.983. For the same molecule, the relative viability (NCI-H522; first compound 0.8 µM) was 0.872, the relative viability (NCI-H522; first compound 2.53 µM) was 0.71 and the relative viability (NCI-H522; first compound 8 µM) was 0.781. The relative viability (NCI-H1651; first compound 0.08 µM) was 0.401, the relative viability (NCI-H1651; first compound 0.253 µM) was 0.457 and the relative viability (NCI-H1651; first compound 0.8 µM) was 0.392. It also gave a relative viability (NCI-H1651; first compound 2.53 µM) of 0.312, a relative viability (NCI-H1651; first compound 8 µM) of 0.387 and a relative viability (NCI-H520; first compound 0.08 µM) of 0.181. It also gave a relative viability (NCI-H520; first compound 0.253 µM) of 0.258, a relative viability (NCI-H520; first compound 0.8 µM) of 0.194 and a relative viability (NCI-H520; first compound 2.53 µM) of 0.172. For the same molecule, the relative viability (NCI-H520; first compound 8 µM) was 0.213, the relative viability (NCI-H661; first compound 0.08 µM) was 0.779 and the relative viability (NCI-H661; first compound 0.253 µM) was 0.938. The relative viability (NCI-H661; first compound 0.8 µM) was 0.761, the relative viability (NCI-H661; first compound 2.53 µM) was 0.729 and the relative viability (NCI-H661; first compound 8 µM) was 0.874. It also gave a relative viability (NCI-H322M; first compound 0.08 µM) of 0.251, a relative viability (NCI-H322M; first compound 0.253 µM) of 0.262 and a relative viability (NCI-H322M; first compound 0.8 µM) of 0.249. The relative viability (NCI-H322M; first compound 2.53 µM) was 0.253, the relative viability (NCI-H322M; first compound 8 µM) was 0.279 and the relative viability (RERF-LC-KJ; first compound 0.08 µM) was 0.685. The relative viability (RERF-LC-KJ; first compound 0.253 µM) was 0.975, the relative viability (RERF-LC-KJ; first compound 0.8 µM) was 0.918 and the relative viability (RERF-LC-KJ; first compound 2.53 µM) was 0.758. For the same molecule, the relative viability (RERF-LC-KJ; first compound 8 µM) was 0.74, the relative viability (SW 900; first compound 0.08 µM) was 0.503 and the relative viability (SW 900; first compound 0.253 µM) was 0.919. The relative viability (SW 900; first compound 0.8 µM) was 0.352, the relative viability (SW 900; first compound 2.53 µM) was 0.44 and the relative viability (SW 900; first compound 8 µM) was 0.538. For the same molecule, the relative viability (PC-14; first compound 0.08 µM) was 0.225, the relative viability (PC-14; first compound 0.253 µM) was 0.217 and the relative viability (PC-14; first compound 0.8 µM) was 0.225. For the same molecule, the relative viability (PC-14; first compound 2.53 µM) was 0.175, the relative viability (PC-14; first compound 8 µM) was 0.253 and the relative viability (SK-MES-1; first compound 0.08 µM) was 0.335. The relative viability (SK-MES-1; first compound 0.253 µM) was 0.256, the relative viability (SK-MES-1; first compound 0.8 µM) was 0.312 and the relative viability (SK-MES-1; first compound 2.53 µM) was 0.317. The relative viability (SK-MES-1; first compound 8 µM) was 0.289, the relative viability (NCI-H441; first compound 0.08 µM) was 0.599 and the relative viability (NCI-H441; first compound 0.253 µM) was 0.586. For the same molecule, the relative viability (NCI-H441; first compound 0.8 µM) was 0.7, the relative viability (NCI-H441; first compound 2.53 µM) was 0.502 and the relative viability (NCI-H441; first compound 8 µM) was 0.658. The relative viability (NCI-H596; first compound 0.08 µM) was 0.662, the relative viability (NCI-H596; first compound 0.253 µM) was 0.636 and the relative viability (NCI-H596; first compound 0.8 µM) was 0.541. The relative viability (NCI-H596; first compound 2.53 µM) was 0.504 and the relative viability (NCI-H596; first compound 8 µM) was 0.594.
